According to PubChem BioAssay AID330 (DTP/NCI, 2004):
Several values for one entry are separate records, joined by “and”; a condition that tells them apart may be missing. Equal values may be shown once. Inconclusive results and toxic doses are left out. The calls were made as follows: active = survival T/C of 150% or more; inactive = T/C below 125% in these data.

Tested on: P388 leukemia ip, CD2F1 mice, survival T/C
Assay: NCI In Vivo Anticancer Drug Screen. Data for tumor model P388 Leukemia (intraperitoneal) in CD2F1 (CDF1) mice
Conditions: endpoint: median survival time, higher = longer survival
Outline: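 Mice carrying the transplanted tumor received test compound or vehicle. Survival was recorded in each group, and the value is the treated-group measurement divided by that of the vehicle-treated control group.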

[1] = dose: 60.0 mg/kg/injection, schedule: Q01DX005 (ip), vehicle: saline with Tween-80
[2] = dose: 120.0 mg/kg/injection, schedule: Q01DX005 (ip), vehicle: saline with Tween-80
[3] = dose: 240.0 mg/kg/injection, schedule: Q01DX005 (ip), vehicle: saline with Tween-80
[4] = dose: 15.0 mg/kg/injection, schedule: Q01DX005 (ip), vehicle: saline with Tween-80

Measured: T/C

CCSC(SCC)C(NC(C)=O)C(OC(C)=O)C(OC(C)=O)C(COC(C)=O)OC(C)=O (configuration not stated)
inactive: dose: 12.5 mg/kg/injection, schedule: Q01DX009 (ip), vehicle: other 107 % of control | dose: 25.0 mg/kg/injection, schedule: Q01DX009 (ip), vehicle: other 107 % of control | dose: 50.0 mg/kg/injection, schedule: Q01DX009 (ip), vehicle: other 95 % of control | dose: 100.0 mg/kg/injection, schedule: Q01DX009 (ip), vehicle: other 107 % of control | dose: 200.0 mg/kg/injection, schedule: Q01DX009 (ip), vehicle: other 98 % of control

COC(=O)c1ccc(SCC2=Nc3c(nc(N)[nH]c3=O)NCC2)cc1
inactive: dose: 12.5 mg/kg/injection, schedule: Q01DX009 (ip), vehicle: distilled water + Tween-80 99 % of control | dose: 25.0 mg/kg/injection, schedule: Q01DX009 (ip), vehicle: distilled water + Tween-80 93 % of control | dose: 50.0 mg/kg/injection, schedule: Q01DX009 (ip), vehicle: distilled water + Tween-80 90 % of control | dose: 100.0 mg/kg/injection, schedule: Q01DX009 (ip), vehicle: distilled water + Tween-80 90 % of control

COC1=CC(=O)c2c(O)cc(OC)c(O)c2C1=O
inactive: dose: 1.25 mg/kg/injection, schedule: Q01DX009 (ip), vehicle: saline + alcohol 104 % of control | dose: 1.25 mg/kg/injection, schedule: Q01DX009 (ip), vehicle: saline with Tween-80 117 % of control | dose: 2.5 mg/kg/injection, schedule: Q01DX009 (ip), vehicle: saline + alcohol 104 % of control | dose: 2.5 mg/kg/injection, schedule: Q01DX009 (ip), vehicle: saline with Tween-80 115 % of control | dose: 5.0 mg/kg/injection, schedule: Q01DX009 (ip), vehicle: saline + alcohol 104 % of control | dose: 5.0 mg/kg/injection, schedule: Q01DX009 (ip), vehicle: saline with Tween-80 110 % of control | dose: 10.0 mg/kg/injection, schedule: Q01DX009 (ip), vehicle: saline + alcohol 106 % of control | dose: 10.0 mg/kg/injection, schedule: Q01DX009 (ip), vehicle: saline with Tween-80 110 % of control | dose: 20.0 mg/kg/injection, schedule: Q01DX009 (ip), vehicle: saline + alcohol 106 % of control | dose: 20.0 mg/kg/injection, schedule: Q01DX009 (ip), vehicle: saline with Tween-80 106 % of control

CCN(CC)c1cc(Cl)ccc1Cl
inactive: dose: 25.0 mg/kg/injection, schedule: Q01DX009 (ip), vehicle: saline with Tween-80 104 % of control | dose: 50.0 mg/kg/injection, schedule: Q01DX009 (ip), vehicle: saline with Tween-80 104 % of control | dose: 100.0 mg/kg/injection, schedule: Q01DX009 (ip), vehicle: saline with Tween-80 100 % of control

COc1nc(NC2OC(COC(C)=O)C(OC(C)=O)C(OC(C)=O)C2OC(C)=O)c2ccoc2n1 (configuration not stated)
inactive: [1] 100 % of control | [2] 101 % of control | [3] 98 % of control

COc1cc(/C=C/C(N)=O)cc(OC)c1OC
inactive: dose: 50.0 mg/kg/injection, schedule: Q04DX003 (ip), vehicle: saline with Tween-80 94 % of control | dose: 100.0 mg/kg/injection, schedule: Q04DX003 (ip), vehicle: saline with Tween-80 90 % of control | dose: 200.0 mg/kg/injection, schedule: Q04DX003 (ip), vehicle: saline with Tween-80 99 % of control | dose: 400.0 mg/kg/injection, schedule: Q04DX003 (ip), vehicle: saline with Tween-80 100 % of control

C=C1C(=O)C23C(O)CC4C5(C)CCCC4(C(O)OC5)C2C(OC(C)=O)CC1C3O (configuration not stated)
inactive: dose: 4.0 mg/kg/injection, schedule: Q01DX009 (ip), vehicle: other 115 % of control | dose: 4.0 mg/kg/injection, schedule: Q01DX009 (ip), vehicle: water 114 % of control | dose: 8.0 mg/kg/injection, schedule: Q01DX009 (ip), vehicle: water 116 % of control | dose: 16.0 mg/kg/injection, schedule: Q01DX009 (ip), vehicle: other 122 % of control | dose: 16.0 mg/kg/injection, schedule: Q01DX009 (ip), vehicle: water 114 % of control | dose: 32.0 mg/kg/injection, schedule: Q01DX009 (ip), vehicle: water 107 % of control

S=C(Nc1ccc(Cl)c(Cl)c1)Nc1ccccc1SCc1cc(Cl)cc2c1OCOC2
inactive: dose: 50.0 mg/kg/injection, schedule: Q01DX009 (ip), vehicle: Klucel (hydroxypropylcellulose) (HPC) 96 % of control | dose: 100.0 mg/kg/injection, schedule: Q01DX009 (ip), vehicle: Klucel (hydroxypropylcellulose) (HPC) 88 % of control | dose: 200.0 mg/kg/injection, schedule: Q01DX009 (ip), vehicle: Klucel (hydroxypropylcellulose) (HPC) 98 % of control

CN(C)c1c2c(=O)n(C)c(=O)n(C)c2nc2cccc[n+]12
inactive: dose: 50.0 mg/kg/injection, schedule: Q01DX005 (ip), vehicle: Klucel (hydroxypropylcellulose) (HPC) 95 % of control | dose: 100.0 mg/kg/injection, schedule: Q01DX005 (ip), vehicle: Klucel (hydroxypropylcellulose) (HPC) 106 % of control | dose: 200.0 mg/kg/injection, schedule: Q01DX005 (ip), vehicle: Klucel (hydroxypropylcellulose) (HPC) 104 % of control

CN(C)C1=CC(=Nc2ccccc2)SC(C)(C)C1
inactive: [4] 100 % of control | dose: 30.0 mg/kg/injection, schedule: Q01DX005 (ip), vehicle: saline with Tween-80 100 % of control | dose: 60.0 mg/kg/injection, schedule: Q01DX005 (ip), vehicle: Klucel (hydroxypropylcellulose) (HPC) 100 % of control | [1] 99 % of control

O=NN(C(=O)NC1CC1)C1CC1
inactive: dose: 25.0 mg/kg/injection, schedule: Q01DX001 (ip), vehicle: water 111 % of control | dose: 50.0 mg/kg/injection, schedule: Q01DX001 (ip), vehicle: water 102 % of control | dose: 100.0 mg/kg/injection, schedule: Q01DX001 (ip), vehicle: water 109 % of control

CC(=O)Oc1cc2c(cc1OC(C)=O)OCC(c1ccccc1)C2 (configuration not stated)
inactive: [1] 98 % of control | [2] 98 % of control | [3] 97 % of control

COC(=O)C(C)CC(C)(CC(C)(CC(C)(C)C(=O)OC)C(=O)OC)C(=O)OC (configuration not stated) (tested in a mixture with another compound)
inactive: [1] 100 % of control | [2] 96 % of control | [3] 100 % of control

C=C1C(=O)OC2C1C(O)C(OC(=O)/C(C)=C/C)C(C)C1C(=O)C=C(C)C21 (configuration not stated)
inactive: dose: 6.25 mg/kg/injection, schedule: Q01DX005 (ip), vehicle: Klucel (hydroxypropylcellulose) (HPC) 107 % of control | dose: 12.5 mg/kg/injection, schedule: Q01DX005 (ip), vehicle: Klucel (hydroxypropylcellulose) (HPC) 114 % of control | dose: 25.0 mg/kg/injection, schedule: Q01DX005 (ip), vehicle: Klucel (hydroxypropylcellulose) (HPC) 115 % of control

CCOC(=O)CCC(=O)Oc1ccc2c(c1)C(=O)c1ccc(OC(=O)CCC(=O)OCC)cc1C2=O
inactive: dose: 1.87 mg/kg/injection, schedule: Q01DX005 (ip), vehicle: Klucel (hydroxypropylcellulose) (HPC) 99 % of control | dose: 3.75 mg/kg/injection, schedule: Q01DX005 (ip), vehicle: Klucel (hydroxypropylcellulose) (HPC) 99 % of control | dose: 7.5 mg/kg/injection, schedule: Q01DX005 (ip), vehicle: Klucel (hydroxypropylcellulose) (HPC) 99 % of control and 91 % of control

CC(C)COC(=O)C(CC(C)C)NC(=O)C(C)O (configuration not stated)
inactive: dose: 50.0 mg/kg/injection, schedule: Q01DX001 (ip), vehicle: suspension in saline 103 % of control | [1] 97 % of control | dose: 100.0 mg/kg/injection, schedule: Q01DX001 (ip), vehicle: suspension in saline 92 % of control | [2] 101 % of control | dose: 200.0 mg/kg/injection, schedule: Q01DX001 (ip), vehicle: suspension in saline 103 % of control | [3] 100 % of control | dose: 400.0 mg/kg/injection, schedule: Q01DX001 (ip), vehicle: suspension in saline 104 % of control

CC(=O)Nc1ccc(S(=O)(=O)Nc2c(N)[nH]c(=S)[nH]c2=O)cc1
inactive: [1] 97 % of control | [2] 98 % of control | [3] 97 % of control

C[n+]1ccc2ccccc2c1SC1CCC2CC3CC2C1C3 (configuration not stated)
inactive: dose: 7.5 mg/kg/injection, schedule: Q01DX005 (ip), vehicle: saline with Tween-80 106 % of control | [4] 110 % of control
